Results: article PMC3216989, “Bluetongue Virus VP1 Polymerase Activity In Vitro: Template Dependency, Dinucleotide Priming and Cap Dependency” (PLoS ONE, 2011)

Molecular target: T1, BTV VP1 (his-tagged VP1) (Bluetongue virus (serotype 10 / American isolate), UniProt P13840)
T1 construct: gene Segment-1; tag cleavage not mentioned
Test: in vitro polymerase assay, [α-32P]CTP incorporation into dsRNA, native PAGE
Format: biochemical
Conditions: 20 pmol in 50 µl, uncapped T7 S9 ssRNA template, Mg2+, Mn2+, pH 7.4, 37 °C, 5 h

T1 sequence (P13840 whole entry): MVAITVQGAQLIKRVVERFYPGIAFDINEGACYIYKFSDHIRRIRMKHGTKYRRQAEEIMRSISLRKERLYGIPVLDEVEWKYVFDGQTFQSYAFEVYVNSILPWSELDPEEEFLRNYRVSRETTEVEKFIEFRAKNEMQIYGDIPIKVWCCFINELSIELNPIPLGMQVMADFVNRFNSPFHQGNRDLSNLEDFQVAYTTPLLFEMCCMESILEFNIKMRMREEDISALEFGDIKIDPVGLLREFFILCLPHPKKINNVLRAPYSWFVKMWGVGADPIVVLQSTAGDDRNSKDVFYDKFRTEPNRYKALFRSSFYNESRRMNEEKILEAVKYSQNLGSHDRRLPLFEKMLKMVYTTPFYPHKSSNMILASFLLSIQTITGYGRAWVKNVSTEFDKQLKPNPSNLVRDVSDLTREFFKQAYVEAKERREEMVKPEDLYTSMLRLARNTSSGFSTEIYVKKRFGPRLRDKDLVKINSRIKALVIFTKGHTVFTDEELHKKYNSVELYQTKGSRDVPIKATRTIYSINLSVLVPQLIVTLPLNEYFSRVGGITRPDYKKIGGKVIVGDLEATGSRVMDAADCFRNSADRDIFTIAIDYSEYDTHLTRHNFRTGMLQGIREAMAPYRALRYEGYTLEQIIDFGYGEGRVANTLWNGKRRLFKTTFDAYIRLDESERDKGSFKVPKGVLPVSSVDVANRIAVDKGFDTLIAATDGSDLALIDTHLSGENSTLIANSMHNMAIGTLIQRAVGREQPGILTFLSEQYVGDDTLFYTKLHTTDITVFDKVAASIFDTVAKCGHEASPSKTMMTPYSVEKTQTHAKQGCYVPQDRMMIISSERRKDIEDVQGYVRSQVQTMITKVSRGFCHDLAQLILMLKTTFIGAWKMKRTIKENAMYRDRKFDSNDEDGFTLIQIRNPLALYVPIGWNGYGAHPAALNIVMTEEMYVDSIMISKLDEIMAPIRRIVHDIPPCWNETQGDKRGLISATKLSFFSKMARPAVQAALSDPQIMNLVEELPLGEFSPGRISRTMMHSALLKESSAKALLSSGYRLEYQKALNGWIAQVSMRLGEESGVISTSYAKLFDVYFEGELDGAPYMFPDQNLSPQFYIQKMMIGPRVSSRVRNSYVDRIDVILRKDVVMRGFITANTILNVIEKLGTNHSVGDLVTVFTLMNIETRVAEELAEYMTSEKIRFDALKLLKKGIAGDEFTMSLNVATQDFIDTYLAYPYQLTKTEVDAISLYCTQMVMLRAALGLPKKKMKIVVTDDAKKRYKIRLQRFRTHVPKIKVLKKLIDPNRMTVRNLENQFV

CO[C@H]1[C@@H](O)[C@H](n2c[n+](C)c3c(=O)[nH]c(N)nc32)O[C@@H]1COP(=O)(O)OP(=O)(O)OP(=O)(O)OC[C@H]1O[C@@H](n2cnc3c(=O)[nH]c(N)nc32)[C@H](O)[C@@H]1O [ARCA, 3′-O-methyl-m7GpppG]
fold of control (activator, allosteric proposed): dsRNA synthesis from both capped and uncapped T7 S9 ssRNA was enhanced

Nc1nc2c(ncn2[C@@H]2O[C@H](COP(=O)(O)O[C@H]3[C@@H](O)[C@H](n4cnc5c(N)ncnc54)O[C@@H]3CO)[C@@H](O)[C@H]2O)c(=O)[nH]1 [ApG]
fold of control (priming dinucleotide): GpG and ApG, which complement only the last nucleotide

Nc1nc2c(ncn2[C@@H]2O[C@H](COP(=O)(O)O[C@H]3[C@@H](O)[C@H](n4cnc5c(=O)[nH]c(N)nc54)O[C@@H]3CO)[C@@H](O)[C@H]2O)c(=O)[nH]1 [GpG]
fold of control (priming dinucleotide, additional allosteric effect proposed): GpG and ApG, which complement only the last nucleotide

Nc1nc2c(ncn2[C@@H]2O[C@H](COP(=O)(O)OP(=O)(O)OP(=O)(O)OC[C@H]3O[C@@H](n4cnc5c(N)ncnc54)[C@H](O)[C@@H]3O)[C@@H](O)[C@H]2O)c(=O)[nH]1 [GpppA]
fold of control (activator, allosteric proposed): dsRNA synthesis from both capped and uncapped T7 S9 ssRNA was enhanced

Nc1nc2c(ncn2[C@@H]2O[C@H](COP(=O)(O)OP(=O)(O)OP(=O)(O)OC[C@H]3O[C@@H](n4cnc5c(=O)[nH]c(N)nc54)[C@H](O)[C@@H]3O)[C@@H](O)[C@H]2O)c(=O)[nH]1 [GpppG]
fold of control (activator, allosteric proposed): enhanced by the addition of all cap analogues, with GpppG showing the greatest enhancement

C[n+]1cn([C@@H]2O[C@H](COP(=O)(O)OP(=O)(O)OP(=O)(O)OC[C@H]3O[C@@H](n4cnc5c(=O)[nH]c(N)nc54)[C@H](O)[C@@H]3O)[C@@H](O)[C@H]2O)c2nc(N)[nH]c(=O)c21 [m7GpppG]
fold of control (activator, allosteric proposed): dsRNA synthesis from both capped and uncapped T7 S9 ssRNA was enhanced
